Test systems include HCT-116 colon; HCT-15 colon; PC-3 prostate; KM12 colon; SF-539 CNS; MALME-3M melanoma; RXF 393 renal; SK-MEL-2 melanoma; CCRF-CEM leukemia; NCI-H522 lung.
What all share (experiment): NCI anticancer screen, dose series, 48 h

This is an account of results in PubChem BioAssay (NCI).

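Five compound concentrations were applied to cells in 96-well plates for 48 hours; endpoints were derived by simple linear interpolation of the resulting dose-response curve. TGI: total growth inhibition.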

Take `COC(=O)C1=C(O)C(C(=O)OC)[C@]2(O)[C@H](C(=O)OC)[C@H]1C[C@@H](c1ccc(Cl)cc1)[C@H]2C(=O)OC` (some centres not stated): the TGI in the test on HCT-116 colon amounted to 17.3 µM; in the test with HCT-15 colon it was 47.7 µM; with PC-3 prostate it was 18.8 µM; in the test on KM12 colon, 46.6 µM; with SF-539 CNS it was 20.9 µM; with MALME-3M melanoma, 25.1 µM. Moreover, the TGI is 19.1 µM in the test on RXF 393 renal, 6.51 µM in the test with SK-MEL-2 melanoma and more than 100 µM with CCRF-CEM leukemia.

As to `COc1ccccc1NC(=S)Nc1cc(C)cc(C)n1`, the TGI in the test with HCT-116 colon, with HCT-15 colon, in the test on PC-3 prostate, with KM12 colon, in the test on SF-539 CNS and in the test on MALME-3M melanoma was more than 100 µM in each case. In addition, the TGI in the test on RXF 393 renal, with SK-MEL-2 melanoma and in the test with CCRF-CEM leukemia was more than 100 µM throughout.

As to `O=P1(O)c2ccccc2CCc2ccccc21`, the TGI in the test on HCT-116 colon, with NCI-H522 lung, in the test with HCT-15 colon, in the test on PC-3 prostate, in the test with KM12 colon and in the test with SF-539 CNS was more than 100 µM each time. Besides, the TGI in the test with RXF 393 renal, with SK-MEL-2 melanoma and in the test on CCRF-CEM leukemia was more than 100 µM throughout.

Take `COc1cc(/C=C2/SC(c3ccccc3)N(c3ccccc3Cl)C2=O)cc(OC)c1OC` (configuration not stated): the TGI was 67.7 µM with HCT-116 colon; 32.3 µM with NCI-H522 lung; more than 100 µM in the test with HCT-15 colon; more than 100 µM in the test on KM12 colon; 36.6 µM in the test with SF-539 CNS; 64.7 µM in the test on MALME-3M melanoma. The TGI in the test on RXF 393 renal is 70.2 µM; in the test with SK-MEL-2 melanoma it was more than 100 µM; with CCRF-CEM leukemia, 43.4 µM.

With `CCOC(=O)c1cc2c([nH]1)c(O)cc1c2ccn1Cc1ccccc1`, the TGI turned out to be 23.8 µM with HCT-116 colon; 30.5 µM in the test on HCT-15 colon; 34.2 µM in the test with PC-3 prostate; 24.8 µM in the test on KM12 colon; 40.2 µM in the test on SF-539 CNS; 36.8 µM in the test with MALME-3M melanoma. Besides, the TGI with RXF 393 renal came out at 21.9 µM; in the test on SK-MEL-2 melanoma, 36.6 µM; in the test with CCRF-CEM leukemia, 39.9 µM.

Regarding `COc1ccc(/C=C2\CCC(C)C3C2=NN(c2ccccc2)C3c2ccc(OC)c(OC)c2)cc1OC` (configuration not stated), the TGI in the test with HCT-116 colon is 5.5 µM; in the test with HCT-15 colon, 9.92 µM; in the test with PC-3 prostate, 51.6 µM; in the test with KM12 colon, 6.46 µM; with SF-539 CNS, 7.49 µM; in the test with MALME-3M melanoma, 16.7 µM. The TGI is 16.3 µM with RXF 393 renal, 7.87 µM with SK-MEL-2 melanoma and 10.2 µM with CCRF-CEM leukemia.

Take `O=C(O)CCCn1nnc2c(=O)[nH][nH]c(=O)c21`: the TGI with HCT-116 colon, in the test on HCT-15 colon, with PC-3 prostate, in the test with KM12 colon, with MALME-3M melanoma and with SK-MEL-2 melanoma was more than 100 µM throughout. The TGI in the test with CCRF-CEM leukemia is more than 100 µM.

With `[Cl-].[Rh+3].c1cnc2c(c1)ccc1cccnc12.c1cnc2c(c1)ccc1cccnc12.c1cnc2c(c1)ccc1cccnc12`, the TGI in the test with HCT-116 colon, in the test on NCI-H522 lung, with HCT-15 colon, in the test with KM12 colon, with SF-539 CNS and with MALME-3M melanoma was more than 100 µM in each case. For the same compound, the TGI with SK-MEL-2 melanoma and in the test with CCRF-CEM leukemia was more than 100 µM each time.

For the compound `O=C(N/N=C/C=C/c1ccccc1)[C@H](O)[C@@H](O)C(=O)N/N=C/C=C/c1ccccc1`, the TGI with HCT-116 colon, in the test on NCI-H522 lung, in the test with HCT-15 colon, with KM12 colon, with SF-539 CNS and with MALME-3M melanoma was more than 100 µM each time. The TGI in the test on RXF 393 renal, with SK-MEL-2 melanoma and in the test with CCRF-CEM leukemia was more than 100 µM throughout.

For `O=c1oc2ccccc2cc1-c1csc(Nc2ccc(F)cc2)n1`, the TGI came out at 5.65 µM in the test with HCT-116 colon; 3.82 µM in the test on NCI-H522 lung; 11.2 µM in the test on HCT-15 colon; 19.3 µM in the test on PC-3 prostate; 18.4 µM in the test with KM12 colon; 3.5 µM in the test on SF-539 CNS. The TGI stood at 28.2 µM in the test on RXF 393 renal, 39.2 µM in the test on SK-MEL-2 melanoma and 16.3 µM in the test with CCRF-CEM leukemia.

On to `CCCCC(=O)c1ccc2ccccc2c1O`, for which the TGI in the test with HCT-116 colon, with HCT-15 colon, with PC-3 prostate, with KM12 colon, with SF-539 CNS and with RXF 393 renal was more than 100 µM each time. For the same compound, the TGI with SK-MEL-2 melanoma and with CCRF-CEM leukemia was more than 100 µM each time.

For the compound `CC(=O)Oc1cc(Cl)c(C)c2c1[C@H]1CC[C@]3(C)[C@@H](OC(C)=O)CC[C@H]3[C@@H]1CC2`, the TGI in the test on HCT-116 colon, with NCI-H522 lung, in the test on HCT-15 colon, in the test on KM12 colon, with SF-539 CNS and in the test on MALME-3M melanoma was more than 100 µM throughout. Besides, the TGI in the test with RXF 393 renal and in the test on CCRF-CEM leukemia was more than 100 µM in each case.

`OC1(c2ccc(Cl)cc2)C(N2CCCC2)c2ccccc2C2=NCCN21` (configuration not stated): the TGI in the test with HCT-116 colon was 46.6 µM; in the test on HCT-15 colon, more than 100 µM; with PC-3 prostate it was more than 100 µM; in the test with KM12 colon, 60 µM; in the test on SF-539 CNS, 39.4 µM; in the test on MALME-3M melanoma it was 36.9 µM. Further, the figures for the TGI in the test on RXF 393 renal, in the test on SK-MEL-2 melanoma and with CCRF-CEM leukemia were 91.9 µM, 45 µM and more than 100 µM, respectively.

In the case of `CC1(C)C2CCC(CN)(C2)C1N` (configuration not stated), the TGI in the test on HCT-116 colon, in the test on HCT-15 colon, in the test with PC-3 prostate, with KM12 colon, with SF-539 CNS and with MALME-3M melanoma was more than 100 µM throughout. Moreover, the TGI in the test with RXF 393 renal, in the test with SK-MEL-2 melanoma and in the test on CCRF-CEM leukemia was more than 100 µM each time.

In the case of `CCOC(=O)N(NC(=O)NC(C)C)c1ccccc1`, the TGI with HCT-116 colon, in the test on HCT-15 colon, in the test on PC-3 prostate, with KM12 colon, in the test on SF-539 CNS and in the test with MALME-3M melanoma was more than 100 µM each time. In addition, the TGI in the test with RXF 393 renal, in the test on SK-MEL-2 melanoma and in the test with CCRF-CEM leukemia was more than 100 µM each time.

In the case of `COC(=O)C1=C(O)C(C(=O)OC)[C@]2(O)[C@H](C(=O)OC)[C@H]1C[C@@H](c1ccc(OC)c(OC)c1)[C@H]2C(=O)OC` (some centres not stated), the TGI in the test with HCT-116 colon is more than 100 µM; with HCT-15 colon, 36.5 µM; in the test on PC-3 prostate, more than 100 µM; in the test with KM12 colon it was 54.5 µM; with SF-539 CNS it was 20.7 µM; in the test on RXF 393 renal, 48.4 µM. Moreover, the figures for the TGI with SK-MEL-2 melanoma and in the test on CCRF-CEM leukemia were 99.4 µM and more than 100 µM, respectively.

For the compound `Cc1ccc(S(=O)(=O)c2ccsc2NC(=O)C(F)(F)F)cc1`, the TGI was 95.3 µM in the test with HCT-116 colon; more than 100 µM with NCI-H522 lung; more than 100 µM in the test with HCT-15 colon; more than 100 µM in the test with PC-3 prostate; more than 100 µM with KM12 colon; more than 100 µM in the test with SF-539 CNS. Moreover, the TGI in the test with MALME-3M melanoma was more than 100 µM; in the test with SK-MEL-2 melanoma, 94.7 µM.

On to `Cc1cc(C)c2c(O)c(S(=O)(=O)c3ccc(Cl)cc3)c(=O)oc2c1`, for which the TGI in the test on HCT-116 colon, in the test with HCT-15 colon, in the test with PC-3 prostate, in the test on KM12 colon, with SF-539 CNS and with MALME-3M melanoma was more than 100 µM throughout. For the same compound, the TGI in the test on RXF 393 renal, in the test with SK-MEL-2 melanoma and with CCRF-CEM leukemia was more than 100 µM each time.

For `O=c1c2ccccc2[nH]c2c(Cl)cc(Cl)c(NC3CCCCC3)c12`, the TGI in the test on HCT-116 colon was more than 100 µM; with NCI-H522 lung it was 44 µM; in the test with HCT-15 colon it was more than 100 µM; in the test with PC-3 prostate, 60.1 µM; with KM12 colon, 32.4 µM; with SF-539 CNS it was 57.8 µM. This compound also had a TGI with SK-MEL-2 melanoma of 41.9 µM.

As for `CCOCc1c(C)cc(C)c(C2C(C(=O)c3ccccc3)N3c4ccccc4C=CC3C2(C#N)C(=O)OCC)c1C` (configuration not stated), the TGI was more than 100 µM with HCT-116 colon; more than 100 µM with HCT-15 colon; more than 100 µM in the test with PC-3 prostate; 54.9 µM in the test with KM12 colon; more than 100 µM with RXF 393 renal; more than 100 µM with CCRF-CEM leukemia.

Regarding `Oc1c2cc(Cl)cc1COCc1cc(Cl)cc(c1O)COCc1cc(Cl)cc(c1O)COC2`, the TGI in the test with HCT-116 colon, with HCT-15 colon, in the test on PC-3 prostate, in the test on KM12 colon, in the test on RXF 393 renal and with SK-MEL-2 melanoma was more than 100 µM each time. In the test on CCRF-CEM leukemia, this compound came in with a TGI of 59.5 µM.

On to `CCOC(=O)c1c(NC(=O)c2cccs2)sc2c1CCC2`, for which the TGI in the test with HCT-116 colon, in the test with HCT-15 colon, in the test with PC-3 prostate, with KM12 colon, in the test on SF-539 CNS and in the test with RXF 393 renal was more than 100 µM throughout. Moreover, the TGI with SK-MEL-2 melanoma and with CCRF-CEM leukemia was more than 100 µM in each case.

Take `CCCC/C=C/C/C=C/CCCCCCCCC(=O)OCC1CCCN2CCCCC12` (configuration not stated): the TGI in the test with HCT-116 colon, with HCT-15 colon, in the test on PC-3 prostate, in the test on KM12 colon, in the test on SF-539 CNS and in the test with MALME-3M melanoma was more than 100 µM in each case. Besides, the TGI in the test with RXF 393 renal, in the test on SK-MEL-2 melanoma and in the test on CCRF-CEM leukemia was more than 100 µM in each case.
